The inhibition is the share of the control response that was lost under treatment. As a reminder, the pKi is −log10 of the Ki, conventionally taken in molar units.

pKi: −log10 of the molar value.

Holding throughout (type): cell-based
Assay [1] concerns the target T1, Adenosine receptor A1 (Homo sapiens) (UniProt P30542).
T1 sequence (whole entry): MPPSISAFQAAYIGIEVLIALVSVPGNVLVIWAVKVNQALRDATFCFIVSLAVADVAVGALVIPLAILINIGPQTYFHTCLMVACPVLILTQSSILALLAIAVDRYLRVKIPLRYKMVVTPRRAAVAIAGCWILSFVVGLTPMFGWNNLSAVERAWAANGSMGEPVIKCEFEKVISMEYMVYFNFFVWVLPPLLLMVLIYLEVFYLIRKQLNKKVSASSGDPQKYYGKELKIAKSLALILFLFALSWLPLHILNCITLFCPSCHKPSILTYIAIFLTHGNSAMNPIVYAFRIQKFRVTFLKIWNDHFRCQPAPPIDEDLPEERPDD
Nature of the assay: Displacement of [3H]DPCPX from human recombinant adenosine A1 receptor expressed in CHO cells at 10 uM after 60 mins by liquid scintillation counting. In general terms: In a radioligand displacement assay an active substance lowers the binding of a labelled ligand.

Assay [2] has as its target Adenosine receptor A2a (Homo sapiens, UniProt P29274). Nature of the assay: Displacement of [3H]CGS21680 from human recombinant adenosine A2A receptor expressed in HEK293 cells after 60 mins by liquid scintillation counting.
The target in assay [3] is T2, Adenosine receptor A3 (Homo sapiens) (UniProt P0DMS8).
T2 sequence (whole entry): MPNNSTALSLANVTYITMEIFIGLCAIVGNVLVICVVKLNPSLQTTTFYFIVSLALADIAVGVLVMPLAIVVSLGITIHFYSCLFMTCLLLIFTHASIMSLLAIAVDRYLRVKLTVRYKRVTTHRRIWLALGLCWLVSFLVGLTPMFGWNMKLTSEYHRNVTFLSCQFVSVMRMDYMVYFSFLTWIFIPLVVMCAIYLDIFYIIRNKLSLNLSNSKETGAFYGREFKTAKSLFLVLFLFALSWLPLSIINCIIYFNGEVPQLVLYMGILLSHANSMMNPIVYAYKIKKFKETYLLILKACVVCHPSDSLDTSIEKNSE
Nature of the assay: Displacement of [125I]I-AB-MECA from human recombinant adenosine A3 receptor expressed in CHO cells at 10 uM after 60 mins by gamma scintillation counting.

Assay [4] addresses T3, Adenosine receptor A1 (Homo sapiens, UniProt P30542).
T3 sequence (P30542 whole entry): T1 sequence (whole entry)
Nature of the assay: Displacement of [3H]DPCPX from human recombinant adenosine A1 receptor expressed in CHO cells after 60 mins by liquid scintillation counting.

The target of assay [5] is T4, Adenosine receptor A3 (Homo sapiens, UniProt P0DMS8).
T4 sequence (P0DMS8 whole entry): T2 sequence (whole entry)
Nature of the assay: Displacement of [125I]I-AB-MECA from human recombinant adenosine A3 receptor expressed in CHO cells after 60 mins by gamma scintillation counting.

Sequence of Adenosine receptor A2a (P29274 whole entry): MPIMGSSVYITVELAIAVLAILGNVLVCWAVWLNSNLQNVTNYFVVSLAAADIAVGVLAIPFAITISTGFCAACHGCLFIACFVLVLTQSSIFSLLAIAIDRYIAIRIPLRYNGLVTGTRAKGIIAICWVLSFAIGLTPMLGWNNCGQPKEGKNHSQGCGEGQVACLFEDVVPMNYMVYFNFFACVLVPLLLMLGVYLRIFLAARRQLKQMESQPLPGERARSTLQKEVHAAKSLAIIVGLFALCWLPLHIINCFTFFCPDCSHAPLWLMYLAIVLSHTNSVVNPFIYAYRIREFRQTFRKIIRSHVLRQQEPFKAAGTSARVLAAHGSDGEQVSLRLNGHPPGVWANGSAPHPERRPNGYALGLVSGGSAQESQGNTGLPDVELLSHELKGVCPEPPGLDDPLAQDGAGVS

Take `COc1ccc(CCCn2ncc3c2nc(N)n2nc(-c4ccco4)nc32)cc1`: the inhibition in assay [1] came to 35%.

As to `Nc1nc2c(cnn2CCCc2ccc(OCC(=O)NCCNCCNC(=O)CCCCCNC(=O)COc3ccc(/C=C/C4=[N+]5C(=Cc6ccc(-c7ccc[nH]7)n6[B-]5(F)F)C=C4)cc3)cc2)c2nc(-c3ccco3)nn12`, in assay [2], the pKi is 7.82. In addition, in assay [3], the inhibition stood at 28%.

Take `Nc1nc2c(cnn2CCCc2ccc(OCC(=O)O)cc2)c2nc(-c3ccco3)nn12`: the pKi in assay [2] was 7.99; in assay [4] it was 5.77. For the same compound, the inhibition in assay [3] turned out to be 29%.

Take `COC(=O)COc1ccc(CCCn2ncc3c2nc(N)n2nc(-c4ccco4)nc32)cc1`: the pKi is 7.02 in assay [2] and 5.32 in assay [4]. The inhibition in assay [3] amounted to 50%.

In the case of `CN(C)c1ccc2c(-c3ccc(C(=O)NCCNC(=O)COc4ccc(CCCn5ncc6c5nc(N)n5nc(-c7ccco7)nc65)cc4)cc3C(=O)[O-])c3ccc(=[N+](C)C)cc-3oc2c1`, the negative logarithm of the Ki (pKi) in assay [2] was 6.45. The inhibition came to 24% in assay [3] and 7% in assay [1].

As to `NCCNCCNC(=O)COc1ccc(CCCn2ncc3c2nc(N)n2nc(-c4ccco4)nc32)cc1`, the pKi was 7.97 in assay [2] and 5.48 in assay [5]. In addition, the inhibition in assay [1] turned out to be 20%.

Take `CC(=O)NCCn1cc(CCCCC(=O)NCCNC(=O)COc2ccc(CCCn3ncc4c3nc(N)n3nc(-c5ccco5)nc43)cc2)nn1`: the pKi in assay [2] is 6.66; in assay [5] it was 6.52; in assay [4], 5.77.

Consider `Nc1nc2c(cnn2CCCc2ccc(O)cc2)c2nc(-c3ccco3)nn12`, for which the pKi in assay [4] is 5.35.

Regarding `C#CCCCCC(=O)NCCNC(=O)COc1ccc(CCCn2ncc3c2nc(N)n2nc(-c4ccco4)nc32)cc1`, the pKi in assay [2] was 7.12; in assay [5] it was 5.89; in assay [4], 5.96.

Regarding `N=c1ccc2c(-c3ccc(C(=O)NCCNC(=O)COc4ccc(CCCn5ncc6c5nc(N)n5nc(-c7ccco7)nc65)cc4)cc3C(=O)O)c3ccc(N)c(S(=O)(=O)O)c3oc-2c1S(=O)(=O)O`, the pKi in assay [2] is 6.95. Besides, the values for the inhibition in assay [3] and in assay [1] were 4% and 20%, respectively.

On to `NCCNC(=O)COc1ccc(CCCn2ncc3c2nc(N)n2nc(-c4ccco4)nc32)cc1`, for which the pKi was 8.17 in assay [2], 5.40 in assay [5] and 5.90 in assay [4].

Regarding `Nc1nc2c(cnn2CCCc2ccc(OCCCF)cc2)c2nc(-c3ccco3)nn12`, the pKi in assay [2] is 7.27; in assay [5], 5.88; in assay [4], 6.00.

For the origin of these results see ChEMBL document CHEMBL1770126, “Molecular probes for the A2A adenosine receptor based on a pyrazolo[4,3-e][1,2,4]triazolo[1,5-c]pyrimidin-5-amine scaffold” (Bioorg Med Chem Lett, 2011).
